Measured values taken from ChEMBL document CHEMBL3045033, “Synthesis of new potential anticancer agents based on 4-thiazolidinone and oleanane scaffolds” (Med Chem Res, 2012).
Values joined by “and” are separate entries in the source; they are usually repeats but may differ in a detail not shown here. Equal entries are not always repeated.

How the values were obtained:
Assay type in all cases: functional
K562 [1] = assay: Cytotoxicity against Homo sapiens (human) K562 cells after 48 hr by SRB assay; conditions: K562, 48 h
SF-295 = assay: Cytotoxicity against Homo sapiens (human) SF295 cells after 48 hr by SRB assay; conditions: SF-295, 48 h
MDA-MB-435 [2] = assay: Cytotoxicity against Homo sapiens (human) MDA-MB-435 cells after 48 hr by SRB assay; conditions: MDA-MB-435, 48 h; for CC50: read-out: pLC50 (the source's name) (converted)
IGROV-1 = assay: Cytotoxicity against Homo sapiens (human) IGROV1 cells at 10^-4 to 10^-8 M after 48 hr by SRB assay; conditions: IGROV-1, 48 h, read-out: pTGI (converted)
MCF7 = assay: Cytotoxicity against Homo sapiens (human) MCF7 cells after 48 hr by SRB assay; conditions: MCF7, 48 h
PC-3 [3] = assay: Cytotoxicity against Homo sapiens (human) PC3 cells assessed as cellular growth at 10^-5 M after 48 hr by SRB assay relative to untreated control
PC-3 [4] = assay: Cytotoxicity against Homo sapiens (human) PC3 cells after 48 hr by SRB assay; conditions: PC-3, 48 h
SK-MEL-5 = assay: Cytotoxicity against Homo sapiens (human) SK-MEL-5 cells after 48 hr by SRB assay
SF-268 = assay: Cytotoxicity against Homo sapiens (human) SF268 cells at 10^-4 to 10^-8 M after 48 hr by SRB assay; conditions: SF-268, 48 h, read-out: pTGI (converted)
T47D = assay: Cytotoxicity against Homo sapiens (human) T47D cells after 48 hr by SRB assay
HCT-15 = assay: Cytotoxicity against Homo sapiens (human) HCT15 cells after 48 hr by SRB assay; conditions: HCT-15, 48 h
HCC 2998 [5] = assay: Cytotoxicity against Homo sapiens (human) HCC2998 cells at 10^-4 to 10^-8 M after 48 hr by SRB assay; conditions: HCC 2998, 48 h, read-out: pTGI (converted)
RPMI-8226 [6] = assay: Cytotoxicity against Homo sapiens (human) RPMI8226 cells after 48 hr by SRB assay; conditions: RPMI-8226, 48 h
HOP-92 = assay: Cytotoxicity against Homo sapiens (human) HOP92 cells after 48 hr by SRB assay; conditions: HOP-92, 48 h
Hs-578T = assay: Cytotoxicity against Homo sapiens (human) Hs578T cells after 48 hr by SRB assay
SN12C = assay: Cytotoxicity against Homo sapiens (human) SN12C cells after 48 hr by SRB assay
HL-60(TB) = assay: Cytotoxicity against Homo sapiens (human) HL-60(TB) cells after 48 hr by SRB assay; conditions: HL-60, 48 h
OVCAR-8 = assay: Cytotoxicity against Homo sapiens (human) OVCAR8 cells after 48 hr by SRB assay; conditions: OVCAR-8, 48 h
RXF 393 [7] = assay: Cytotoxicity against Homo sapiens (human) RXF393 cells after 48 hr by SRB assay
MDA-MB-231 = assay: Cytotoxicity against Homo sapiens (human) MDA-MB-231 cells after 48 hr by SRB assay; conditions: MDA-MB-231, 48 h
LOX IMVI = assay: Cytotoxicity against Homo sapiens (human) LOXIMVI cells after 48 hr by SRB assay
MOLT-4 = assay: Cytotoxicity against Homo sapiens (human) MOLT4 cells after 48 hr by SRB assay; conditions: MOLT-4, 48 h
HCT-116 = assay: Cytotoxicity against Homo sapiens (human) HCT116 cells after 48 hr by SRB assay; conditions: HCT-116, 48 h
BT-549 = assay: Cytotoxicity against Homo sapiens (human) BT549 cells after 48 hr by SRB assay; conditions: BT-549, 48 h
NCI-H460 = assay: Cytotoxicity against Homo sapiens (human) NCI-H460 cells after 48 hr by SRB assay; conditions: NCI-H460, 48 h
KM12 = assay: Cytotoxicity against Homo sapiens (human) KM12 cells after 48 hr by SRB assay; conditions: KM12, 48 h
786-0 = assay: Cytotoxicity against Homo sapiens (human) 786-0 cells after 48 hr by SRB assay; conditions: 786-0, 48 h
A549 = assay: Cytotoxicity against Homo sapiens (human) A549 cells after 48 hr by SRB assay; conditions: A549, 48 h
NCI-H23 = assay: Cytotoxicity against Homo sapiens (human) NCI-H23 cells after 48 hr by SRB assay; conditions: NCI-H23, 48 h
TK-10 = assay: Cytotoxicity against Homo sapiens (human) TK10 cells after 48 hr by SRB assay; conditions: TK-10, 48 h
RXF 393 [8] = assay: Cytotoxicity against Homo sapiens (human) RXF393 cells at 10^-4 to 10^-8 M after 48 hr by SRB assay; conditions: RXF 393, 48 h, read-out: pTGI (converted)
NCI-H522 = assay: Cytotoxicity against Homo sapiens (human) NCI-H522 cells at 10^-4 to 10^-8 M after 48 hr by SRB assay; conditions: NCI-H522, 48 h, read-out: pTGI (converted)
COLO 205 = assay: Cytotoxicity against Homo sapiens (human) COLO205 cells at 10^-4 to 10^-8 M after 48 hr by SRB assay; conditions: COLO 205, 48 h, read-out: pTGI (converted)
CAKI-1 = assay: Cytotoxicity against Homo sapiens (human) Caki1 cells after 48 hr by SRB assay; conditions: CAKI-1, 48 h
OVCAR-3 = assay: Cytotoxicity against Homo sapiens (human) OVCAR3 cells after 48 hr by SRB assay
MDA-MB-435 [9] = assay: Cytotoxicity against Homo sapiens (human) MDA-MB-435 cells at 10^-4 to 10^-8 M after 48 hr by SRB assay; conditions: MDA-MB-435, 48 h, read-out: pTGI (converted)
OVCAR-4 = assay: Cytotoxicity against Homo sapiens (human) OVCAR4 cells after 48 hr by SRB assay; conditions: OVCAR-4, 48 h
HCC 2998 [10] = assay: Cytotoxicity against Homo sapiens (human) HCC2998 cells after 48 hr by SRB assay; conditions: HCC 2998, 48 h
UO-31 = assay: Cytotoxicity against Homo sapiens (human) UO31 cells after 48 hr by SRB assay
K562 [11] = assay: Cytotoxicity against Homo sapiens (human) K562 cells assessed as cellular growth at 10^-5 M after 48 hr by SRB assay relative to untreated control
RPMI-8226 [12] = assay: Cytotoxicity against Homo sapiens (human) RPMI8226 cells assessed as cellular growth at 10^-5 M after 48 hr by SRB assay relative to untreated control
Malme-3M = assay: Cytotoxicity against Homo sapiens (human) MALME-3M cells at 10^-4 to 10^-8 M after 48 hr by SRB assay; conditions: read-out: pTGI (converted)

SMILES: COC(=O)[C@]12CCC(C)(C)C[C@H]1C1=CC[C@@H]3[C@@]4(C)CC/C(=N\O)C(C)(C)[C@@H]4CC[C@@]3(C)[C@]1(C)CC2
- GI50 (K562 [1]): 37.2 µM
- GI50 (SF-295): 17.8 µM
- GI50 (MDA-MB-435 [2]): 39.8 µM
- CC50 (MDA-MB-435 [2]): > 100 µM
- TGI (IGROV-1): > 100 µM
- GI50 (MCF7): 20.4 µM
- Activity (PC-3 [3]): 38.63%
- GI50 (PC-3 [4]): 20.4 µM
- GI50 (SK-MEL-5; Homo sapiens, SK-MEL-5, 48 h): 21.4 µM
- TGI (SF-268): 56.2 µM
- GI50 (T47D): 25.1 µM
- GI50 (HCT-15): 24 µM
- TGI (HCC 2998 [5]): 42.7 µM
- GI50 (RPMI-8226 [6]): 39.8 µM
- GI50 (HOP-92): 19.1 µM
- GI50 (Hs-578T): 27.5 µM
- GI50 (SN12C): 20.9 µM
- GI50 (HL-60(TB)): 58.9 µM
- GI50 (OVCAR-8): 34.7 µM
- GI50 (RXF 393 [7]; Homo sapiens, RXF 393, 48 h): 18.2 µM
- GI50 (MDA-MB-231): 20.4 µM
- GI50 (LOX IMVI; Homo sapiens, LOX IMVI, 48 h): 19.5 µM
- GI50 (MOLT-4): 37.2 µM
- GI50 (HCT-116): 29.5 µM
- GI50 (BT-549): 64.6 µM
- GI50 (NCI-H460): 21.9 µM
- GI50 (KM12): 38.9 µM
- GI50 (786-0): 17.8 µM
- GI50 (A549): 28.8 µM
- GI50 (NCI-H23): 20 µM
- GI50 (TK-10): 33.9 µM
- TGI (RXF 393 [8]): 36.3 µM
- TGI (NCI-H522): 66.1 µM
- TGI (COLO 205): 57.5 µM
- GI50 (CAKI-1): 19.5 µM
- GI50 (OVCAR-3; Homo sapiens, OVCAR-3, 48 h): 18.6 µM
- TGI (MDA-MB-435 [9]): > 100 µM
- GI50 (OVCAR-4): 30.2 µM
- GI50 (HCC 2998 [10]): 22.9 µM
- GI50 (UO-31; Homo sapiens, UO-31, 48 h): 22.4 µM

SMILES: CC1(C)CC[C@@]23CC[C@]4(C)[C@@](OC2=O)([C@@H]3C1)[C@@H](Br)C[C@@H]1[C@@]2(C)CC/C(=N\O)C(C)(C)[C@@H]2CC[C@]14C
- GI50 (K562 [1]): 56.2 µM
- GI50 (SF-295): 14.1 µM
- CC50 (MDA-MB-435 [2]): > 100 µM
- GI50 (MCF7): 11.7 µM
- Activity (PC-3 [3]): 38.45%
- GI50 (PC-3 [4]): 40.7 µM
- GI50 (SK-MEL-5; Homo sapiens, SK-MEL-5, 48 h): 26.3 µM
- TGI (SF-268): > 100 µM
- GI50 (T47D): 17.4 µM
- Activity (K562 [11]): 21.17%
- GI50 (HCT-15): 30.9 µM
- TGI (HCC 2998 [5]): > 100 µM
- GI50 (RPMI-8226 [6]): > 100 µM
- GI50 (HOP-92): 4.37 µM
- GI50 (Hs-578T): 4.68 µM
- GI50 (SN12C): 37.2 µM
- GI50 (HL-60(TB)): > 100 µM
- GI50 (OVCAR-8): 8.51 µM
- GI50 (MDA-MB-231): 17.8 µM
- GI50 (LOX IMVI; Homo sapiens, LOX IMVI, 48 h): 10 µM
- GI50 (MOLT-4): 14.1 µM
- GI50 (HCT-116): 19.1 µM
- GI50 (BT-549): 9.33 µM
- GI50 (NCI-H460): 19.1 µM
- GI50 (KM12): 8.91 µM
- GI50 (786-0): 49 µM
- GI50 (A549): 17.8 µM
- Activity (RPMI-8226 [12]): 38.33%
- GI50 (NCI-H23): 38 µM
- GI50 (TK-10): 18.6 µM
- TGI (Malme-3M): 23.4 µM
- TGI (COLO 205): > 100 µM
- GI50 (CAKI-1): 28.2 µM
- GI50 (OVCAR-3; Homo sapiens, OVCAR-3, 48 h): 11.5 µM
- GI50 (OVCAR-4): 11.5 µM
- GI50 (HCC 2998 [10]): 81.3 µM
- GI50 (UO-31; Homo sapiens, UO-31, 48 h): 40.7 µM

SMILES: COC(=O)[C@]12CCC(C)(C)C[C@H]1C1=CC[C@@H]3[C@@]4(C)CC/C(=N\OC(=O)/C=C5/SC(=O)NC5=O)C(C)(C)[C@@H]4CC[C@@]3(C)[C@]1(C)CC2
- TGI (IGROV-1): 4.17 µM
- GI50 (SK-MEL-5): 43.7 µM and 5.25 µM
- TGI (SF-268): 10.7 µM
- Activity (K562 [11]): 26.64%
- TGI (HCC 2998 [5]): 12.3 µM
- GI50 (RXF 393 [7]): 6.61 µM and 1.91 µM
- GI50 (LOX IMVI): 6.61 µM and 1.48 µM
- Activity (RPMI-8226 [12]): 16.33%
- TGI (RXF 393 [8]): 3.55 µM
- TGI (Malme-3M): 7.76 µM
- TGI (NCI-H522): 5.62 µM
- TGI (COLO 205): 5.37 µM
- GI50 (OVCAR-3): 6.31 µM and 1.91 µM
- TGI (MDA-MB-435 [9]): 9.12 µM
- GI50 (UO-31): 5.75 µM and 1.48 µM
